Results from ChEMBL document CHEMBL1201862, “PubChem BioAssay data set” (2004).
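Values below derive from 48-hour exposures of cells grown in 96-well plates, with endpoints linearly interpolated between the two concentrations bracketing the appropriate inhibition level. GI50 = concentration required for 50% inhibition of growth.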 Calls of active or inactive are those of the source. Cut-off read from the data, not from the text of the source: active = GI50 up to about 1.1 µM and inactive = higher.

Experiments:
Experiment in all cases: inhibition of tumour cell growth, NCI panel, 48 h
DLD-1 = system: DLD-1
DMS-114 = system: DMS-114
DMS-273 = system: DMS-273
HOP-18 = system: HOP-18
KM-20L2 = system: KM-20L2
LXFL 529 = system: LXFL 529
SNB-78 = system: SNB-78
XF498 = system: XF498
RXF 631 = system: RXF 631

Measured: GI50

O=[N+]([O-])c1ccc(C2=Nn3c(nnc3-c3ccccc3)SC2)o1
inactive: DLD-1 14 µM | DMS-114 19.7 µM | DMS-273 20 µM | HOP-18 19.5 µM | KM-20L2 24.7 µM | LXFL 529 16.1 µM | SNB-78 20.3 µM | XF498 19.7 µM

CCOC(=O)Cn1c(=O)[nH]c(=O)c2c1ncn2Cc1ccccc1
inactive: DLD-1 > 100 µM | DMS-114 > 100 µM | DMS-273 > 100 µM | HOP-18 > 100 µM | KM-20L2 > 100 µM | LXFL 529 > 100 µM | RXF 631 > 100 µM | SNB-78 > 100 µM | XF498 > 100 µM

Cc1cc2nc3c(=O)[nH]c(=O)nc-3n(CC(O)C(O)C(O)CO)c2cc1N (configuration not stated)
inactive: DMS-114 > 100 µM | DMS-273 > 100 µM | HOP-18 > 100 µM | LXFL 529 > 100 µM | RXF 631 > 100 µM | SNB-78 > 100 µM

NC1C2(CCCCCC2)NC(=O)C12CCCCCC2 (configuration not stated)
inactive: DLD-1 > 100 µM | DMS-114 > 100 µM | DMS-273 > 100 µM | HOP-18 > 100 µM | LXFL 529 > 100 µM | RXF 631 > 100 µM | SNB-78 > 100 µM | XF498 > 100 µM

O=[N+]([O-])c1ccc(C2=Nn3cnnc3SC2)o1
inactive: DLD-1 19.6 µM | DMS-114 10.8 µM | DMS-273 17.6 µM | LXFL 529 13.6 µM | RXF 631 12.1 µM | SNB-78 22.2 µM | XF498 16.6 µM

Cc1nc2ccccc2nc1CC(=O)C(=O)Nc1ccc(Cl)cc1Cl
inactive: DLD-1 > 100 µM | DMS-273 > 100 µM | KM-20L2 > 100 µM | LXFL 529 > 100 µM | RXF 631 > 100 µM | SNB-78 > 100 µM

CC(C)=CC(=O)CC(=O)C(=O)Nc1ccc(C)c(C)c1
inactive: DLD-1 > 100 µM | DMS-273 > 100 µM | KM-20L2 > 100 µM | LXFL 529 > 100 µM | RXF 631 > 100 µM | SNB-78 > 100 µM | XF498 > 100 µM

CC(=O)Nc1[nH]n(C)c(=O)c1-c1nnc(C)s1
inactive: DLD-1 > 100 µM | DMS-114 > 100 µM | DMS-273 > 100 µM | KM-20L2 > 100 µM | LXFL 529 > 100 µM | RXF 631 > 100 µM | SNB-78 > 100 µM | XF498 > 100 µM

CC1OC(OC2C(CO)OC(O[C@H]3CC[C@@]4(C)C(=CC[C@H]5[C@@H]6C[C@@H]7O[C@]8(CC[C@@H](C)CN8)[C@@H](C)[C@@H]7[C@@]6(C)CC[C@@H]54)C3)C(O)C2O)C(O)C(O)C1O (some centres not stated)
inactive: DLD-1 55 µM | DMS-114 > 100 µM | DMS-273 > 100 µM | HOP-18 43.3 µM | KM-20L2 28.9 µM | LXFL 529 > 100 µM | SNB-78 > 100 µM | XF498 > 100 µM

COC(=O)C1C(C(=O)OC)C2C(=O)C3C(C(=O)OC)C(C(=O)OC)C3C(=O)C12 (configuration not stated)
inactive: DMS-273 > 100 µM | HOP-18 > 100 µM | KM-20L2 > 100 µM | LXFL 529 > 100 µM | RXF 631 > 100 µM | SNB-78 64.3 µM | XF498 > 100 µM

Nc1c(-c2nc3ccccc3[nH]2)sc(=S)n1-c1ccccc1
inactive: DLD-1 60.7 µM | DMS-114 96.2 µM | DMS-273 > 100 µM | KM-20L2 > 10 µM | LXFL 529 95.3 µM | RXF 631 > 100 µM | SNB-78 > 100 µM

CNC(=O)OCc1nc([S+](C)[O-])n(C)c1COC(=O)NC (configuration not stated)
inactive: DLD-1 > 100 µM | DMS-114 > 34.6 µM | DMS-273 > 100 µM | HOP-18 > 88.9 µM | KM-20L2 > 100 µM | LXFL 529 > 23.1 µM | RXF 631 > 100 µM | SNB-78 > 60.5 µM | XF498 > 100 µM

NC(=O)c1c[se]c(C2OC(CO)C(O)C2O)n1 (configuration not stated)
inactive: DLD-1 1.88 µM | DMS-114 25.4 µM | DMS-273 3.58 µM | HOP-18 > 100 µM | LXFL 529 17 µM | RXF 631 7.6 µM | XF498 8.91 µM

NC(=O)c1c(-c2ccccc2)c(-c2ccccc2)cc2c(=O)c3ccccc3[nH]c12
inactive: DLD-1 35.3 µM | DMS-114 21.8 µM | DMS-273 19.9 µM | KM-20L2 21 µM | LXFL 529 16.1 µM | RXF 631 27.4 µM | SNB-78 22.3 µM | XF498 18 µM

O=C(O)[C@H](NS(=O)(=O)c1ccc(F)cc1)c1ccccc1
inactive: DLD-1 > 100 µM | DMS-114 > 100 µM | DMS-273 > 100 µM | HOP-18 > 100 µM | KM-20L2 > 100 µM | LXFL 529 > 100 µM | SNB-78 > 100 µM | XF498 > 100 µM

Cc1cc(N(CCC#N)CCC#N)ccc1/C(Sc1ccccc1)=C(\NC(=O)/C=C/c1ccccc1)C(=O)Sc1ccccc1
inactive: DLD-1 1.73 µM | DMS-114 1.54 µM | DMS-273 6.44 µM | HOP-18 14 µM | KM-20L2 2.14 µM | LXFL 529 1.57 µM | RXF 631 2.79 µM | SNB-78 3.33 µM | XF498 12 µM
